Data from patent US5716929A (Vertex Pharmaceuticals, Inc., priority 1995, dated 1998).
Square brackets hold non-standard residues; d marks the D form. Peptide text beside a SMILES is read from it. * marks the point of attachment. ξ: configuration not given here. Hyp = O=C(O)[C@@H]1C[C@@H](O)CN1; Tic = O=C(O)[C@@H]1Cc2ccccc2CN1; ξD = NC(CC(=O)O)C(=O)O; Allyl = C=CC*

Target: T1, interleukin-1β converting enzyme (ICE) (Homo sapiens, UniProt P29466)
T1 sequence (P29466 120-297 limits assumed): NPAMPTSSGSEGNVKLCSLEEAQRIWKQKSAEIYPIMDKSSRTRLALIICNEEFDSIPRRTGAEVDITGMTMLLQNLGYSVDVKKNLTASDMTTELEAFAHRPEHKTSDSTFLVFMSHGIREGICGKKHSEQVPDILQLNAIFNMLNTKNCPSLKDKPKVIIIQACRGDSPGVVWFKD
T1 sequence (P29466 317-404 limits assumed): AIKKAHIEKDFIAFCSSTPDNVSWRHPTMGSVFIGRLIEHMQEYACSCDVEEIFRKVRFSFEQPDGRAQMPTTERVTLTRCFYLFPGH
Assay: Enzyme assay with UV-visible substrate (Succinyl-Tyr-Val-Ala-Asp-pNitroanilide)
Assay type: biochemical
Conditions: Example 2 table
Protocol: 1. Enzyme assay with UV-visible substrate
This assay is run using an Succinyl-Tyr-Val-Ala-Asp-pNitroanilide substrate (SEQ ID NO: 1). Synthesis of analogous substrates is described by L. A. Reiter (Int. J. Peptide Protein Res. 43, 87-96 (1994)). The assay mixture contains: […]
The visible ICE assay is run in a 96-well microtiter plate. Buffer, ICE and DMSO (if inhibitor is present) are added to the wells in the order listed. The components are left to incubate at room temperature for 15 minutes starting at the time that all components are present in all wells. The microtiter plate reader is set to incubate at 37° C. After the 15 minute incubation, substrate is added directly to the wells and the reaction is monitored by following the release of the chromophore (pNA) at 405-603 nm at 37° C. for 20 minutes. A linear fit of the data is performed and the rate is calculated in mOD/min. DMSO is only present during experiments involving inhibitors, buffer is used to make up the volume to 100 μl in the other experiments.
For determination of enzyme inhibition constants (Ki) or the mode of inhibition (competitive, uncompetitive or noncompetitive), the rate data determined in the enzyme assays at varying inhibitor concentrations are computer-fit to standard enzyme kinetic equations (see I. H. Segel, Enzyme Kinetics, Wiley-Interscience, 1975).

Ki	SMILES
8600 nM	C[C@H](NC(=O)c1cnc(Cc2ccccc2)[nH]1)C(=O)N[C@H](C=O)CC(=O)O [Compound 33c, (3S)3-[N-(2-Benzylimidazole-4-carbonyl)-L-alaninyl]amino-4-oxobutanoic acid]
950 nM	C[C@H](NC(=O)c1ncc(CCc2ccccc2)[nH]1)C(=O)N[C@H](C=O)CC(=O)O [Compound 20c, (3S)3-{N-[4-(2-Phenylethyl)imidazole-2-carbonyl]-L-alaninyl}amino-4-oxobutanoic acid]
4700 nM	C[C@H](NC(=O)c1ccc[nH]1)C(=O)N[C@H](C=O)CC(=O)O [Compound 36a, (3S)3-[N-(Pyrrole-2-carbonyl)-L-alaninyl]amino-4-oxobutanoic acid]
5500 nM	C[C@H](NC(=O)c1cnc(CCc2ccccc2)[nH]1)C(=O)N[C@H](C=O)CC(=O)O [Compound 33a, (3S)3-{N-[2-(2-Phenylethyl)imidazole-4-carbonyl]-L-alaninyl}amino-4-oxobutanoic acid]
3200 nM	C[C@H](NC(=O)c1ncc[nH]1)C(=O)N[C@H](C=O)CC(=O)O [Compound 20a, (3S)3-[N-(Imidazole-2-carbonyl)-L-alaninyl]amino-4-oxobutanoic acid]

SMILES	Ki
CC(=O)N[C@@H](Cc1ccc(O)cc1)C(=O)N[C@H](C(=O)N1Cc2ccccc2C[C@H]1C(=O)NC(C=O)CC(=O)O)C(C)C (stereo partly drawn) [L, N-[2-(N-Acetyl-tyrosinyl-valinyl)-(S)-1,2,3,4-tetrahydroisoquinoline-3-carbonyl]-3-amino-oxobutanoic acid] (Ac-YV[Tic][ξD]-aldehyde)	14 nM

Same assay, conditions: Example 4 table

Ki	SMILES
640 nM	O=C[C@H](CC(=O)O)NC(=O)[C@@H]1CCCN1C(=O)c1nc(CCc2ccccc2)c[nH]1 [Compound 21c, (3S)3{N-[4-(2-Phenylethyl)imidazole-2-carbonyl]-L-prolinyl}amino-4-oxobutanoic acid]
1200 nM	O=C[C@H](CC(=O)O)NC(=O)C1CCc2ncc(NC(=O)c3ccccc3)c(=O)n21 (single isomer, unassigned) [Compound 7b]
20000 nM	Cc1c[nH]c2c(=O)n(CC(=O)N[C@H](C=O)CC(=O)O)cnc12 [Compound 43, (3S)-3-[2-(3,5-Dihydro-7-methyl-4-oxo-4H-pyrrolo[3,2-d]pyrimidin-3-yl)-1-oxo-ethylamino]-4-oxobutanoic acid]
100 nM	CC(C)[C@H](NC(=O)OCc1ccccc1)C(=O)N[C@@H](C)C(=O)N[C@H](CC(=O)O)C(=O)COCc1c(Cl)cccc1Cl (mixture of isomers) [Compound 84a, (R,S) N-[N-(Phenylmethyloxy)carbonyl-valinyl-alaninyl]-3-amino-5-(2,6-dichlorophenylmethyloxy)-4-oxo-pentanoic acid]
35000 nM	O=C[C@H](CC(=O)O)NC(=O)C1CCc2ncc(NC(=O)c3ccccc3)c(=O)n21 (single isomer, unassigned) [Compound 7a]
19 nM	CC(=O)N[C@@H](Cc1ccc(O)cc1)C(=O)N[C@H](C(=O)N[C@@H](C)C(=O)N[C@H](CC(=O)O)C(=O)COCc1c(Cl)cccc1Cl)C(C)C (mixture of isomers) [Compound 84b, (R,S)N-[N-(Acetyl)tyrosinyl-valinyl-alaninyl]-3-amino-5-(2,6-dichlorophenylmethyloxy)-4-oxo-pentanoic acid]
100 nM	C[C@H](NC(=O)c1nc(CCCc2ccccc2)c[nH]1)C(=O)N[C@H](C=O)CC(=O)O [Compound 20d, (3S)3-{N-[4-(3-Phenylpropyl)imidazole-2-carbonyl]-L-alaninyl}amino-4-oxo-butanoic acid]
850 nM	C[C@H](NC(=O)c1nc(Cc2ccccc2)c[nH]1)C(=O)N[C@H](C=O)CC(=O)O [Compound 20b, (3S)3-[N-(4-Benzylimidazole-2-carbonyl)-L-alaninyl]amino-4-oxobutanoic acid]
2500 nM	O=C[C@H](CC(=O)O)NC(=O)[C@@H]1CCCN1C(=O)c1cc2ccccc2[nH]1 [Compound 39, (3S) 3-[1-(Indole-2-carbonyl)-L-prolinyl]amino-4-oxobutanoic acid]
800 nM	C[C@H](NC(=O)c1ccc(Cc2ccccc2)[nH]1)C(=O)N[C@H](C=O)CC(=O)O [Compound 36b, (3S)3-[N-(5-Benzylpyrrole-2-carbonyl)-L-alaninyl]amino-4-oxobutanoic acid]
240 nM	O=C[C@H](CC(=O)O)NC(=O)[C@@H]1CCCN1C(=O)c1nc(CCCc2ccccc2)c[nH]1 [Compound 21d, (3S) 3-{N-[4-(3-Phenylpropyl)imidazole-2-carbonyl]-L-prolinyl}amino-4-oxo-butanoic acid]
970 nM	CC(C(=O)N[C@H](C=O)CC(=O)O)n1c(Cc2ccccc2)ccc(NC(=O)CCc2ccccc2)c1=O (stereo partly drawn) [Compound 54h, 3(S), N(2(R,S))3-(2-(6-Benzyl-1,2-dihydro-2-oxo-3-(3-phenylpropionyl)amino-1-pyridyl)propionylamino)-4-oxobutanoic acid]
220 nM	COc1ccc(CCCc2c[nH]c(C(=O)N3CCC[C@H]3C(=O)N[C@H](C=O)CC(=O)O)n2)cc1 [Compound 21e, (3S)3-{N-[4-[3-(4-Methoxyphenyl)propyl]imidazole-2-carbonyl]-L-prolinyl}amino-4-oxobutanoic acid]
170 nM	O=C[C@H](CC(=O)O)NC(=O)[C@@H]1CCCN1C(=O)c1nc(CCCc2ccc(O)cc2)c[nH]1 [Compound 21f, (3S)3-{N-[4-[3-(4-Hydroxyphenyl)propyl]imidazole-2-carbonyl]-L-prolinyl}amino-4-oxobutanoic acid]

Same assay, conditions: Example 6 table

Ki	SMILES
345 nM	CC(C(=O)N[C@H](C=O)CC(=O)O)N1CCN(C(=O)CCc2ccccc2)C[C@H](NC(=O)CCc2ccccc2)C1=O (mixture of isomers) [Compound 115, 4-Oxo-3(S)-{2(R,S)-[7-oxo-4-(3-phenyl-propionyl)-6(S)-(3-phenyl-propionylamino)-[1,4]diazepan-1-yl]propionylamino}-butyric acid]
900 nM	O=C(O)C[C@H](NC(=O)Cn1c(Cc2ccccc2)ccc(NC(=O)CCc2ccccc2)c1=O)C(=O)CO [Compound 88, N-2-(6-Benzyl-1,2-dihydro-2-oxo-3-(3-phenylpropionyl)amino-1-pyridyl)acetyl-3(S)-amino-5-hydroxy-4-oxo-pentanoic acid]
4300 nM	O=CC(CC(=O)O)NC(=O)CN1C(=O)C(NC(=O)OCc2ccccc2)CN(Cc2ccccc2)C(=O)C1Cc1ccccc1 (stereo not shown) [Compound 121, 3-{2-[2,4-Dibenzyl-3,7-dioxo-6-(N-benzyloxycarbonylamino)-[1,4]diazepan-1-yl]-acetylamino}-4-oxo-butyric acid]
190 nM	COc1ccc(CCCc2cnc(C(=O)N3C[C@H](Oc4ccccc4)C[C@H]3C(=O)N[C@H](C=O)CC(=O)O)[nH]2)cc1 [Compound 22e, 3(S)-[(1-{5-[3-(4-Methoxyphenyl)propyl]-1H-imidazole-2-carbonyl}-4(R)-phenoxypyrrolidine-2(S)-carbonyl)amino]-4-oxobutanoic acid]
430 nM	O=C(O)C[C@H](NC(=O)CN1C(=O)[C@@H](NC(=O)CCc2ccccc2)CN(C(=O)CCc2ccccc2)c2ccccc21)C(=O)c1ncc(-c2c(Cl)cccc2Cl)o1 [Compound 108c, 4-[5-(2,6-Dichlorophenyl)oxazol-2-yl]-4-oxo-3(S)-{2-[2-oxo-5-(3-phenylpropionyl)-3(S)-(3-phenylpropionylamino)-2,3,4,5-tetrahydrobenzo[b][1,4]diazepin-1-yl]-acetylamino}butyric acid]
3.5 nM	C=CCO[C@@H]1C[C@@H](C(=O)N[C@H](C=O)CC(=O)O)N(C(=O)[C@@H](NC(=O)[C@H](Cc2ccc(O)cc2)NC(C)=O)C(C)C)C1 [Compound 85, N-(N-Acetyl-tyrosinyl-valinyl-(4 (R)-allyloxyprolinyl))-3(S)-amino-4-oxobutanoic acid] (Ac-YV[Hyp](Allyl)D-aldehyde)
200 nM	O=C[C@H](CC(=O)O)NC(=O)CN1C(=O)[C@@H](NC(=O)CCc2ccccc2)CN(C(=O)CCc2ccccc2)c2ccccc21 [Compound 106b]

SMILES	Ki
CC(=O)N[C@@H](Cc1ccc(O)cc1)C(=O)N[C@H](C(=O)N[C@@H](C)C(=O)N[C@@H](CC(=O)O)C(=O)COCc1ccccc1Cl)C(C)C [Compound 89, N-Acetyl-(S)-tyrosinyl-(S)-valinyl-(S)-alaninyl-3(S)-amino-5-(2-chlorobenzyloxy)-4-oxo-pentanoic acid]	18 nM
